ChEMBL document CHEMBL5465560, “Selectivity Literature for EUbOPEN Chemogenomic Library” (2024)

Experiments:
[1] = target: RAC-alpha serine/threonine-protein kinase (Homo sapiens, UniProt P31749); experiment: Selectivity interaction (Kinase panel (KiNativ target engagement assay in Jurkat cells)) EUB0001635a AKT1; type: cell-based; conditions: at 1 µM
[2] = target: Dual specificity tyrosine-phosphorylation-regulated kinase 1B (Homo sapiens, UniProt Q9Y463); experiment: Selectivity interaction (KinomeScan (DiscoverX)) EUB0000229b DYRK1B; conditions: at 10 µM
[3] = target: Activated CDC42 kinase 1 (Homo sapiens, UniProt Q07912); experiment: Selectivity interaction (KinomeScan (DiscoverX)) EUB0000229b TNK2; conditions: at 10 µM
[4] = target: STE20/SPS1-related proline-alanine-rich protein kinase (Homo sapiens) (UniProt Q9UEW8); experiment: Selectivity interaction (Kinome Scan (DiscoverX)) EUB0000229b STK39; conditions: at 10 µM
[5] = target: Cyclin-dependent kinase 9 (Homo sapiens, UniProt P50750); experiment: Selectivity interaction (LanthaScreen Eu Kinase Binding Assay) EUB0001632a CDK9; conditions: at 10 µM
[6] = target: T1, Phosphatidylinositol 3-kinase C2 domain-containing subunit gamma (Homo sapiens) (UniProt O75747); experiment: Selectivity interaction (KinomeScan (DiscoverX)) EUB0001049a PIK3C2G; conditions: at 1 µM
T1 sequence (whole entry): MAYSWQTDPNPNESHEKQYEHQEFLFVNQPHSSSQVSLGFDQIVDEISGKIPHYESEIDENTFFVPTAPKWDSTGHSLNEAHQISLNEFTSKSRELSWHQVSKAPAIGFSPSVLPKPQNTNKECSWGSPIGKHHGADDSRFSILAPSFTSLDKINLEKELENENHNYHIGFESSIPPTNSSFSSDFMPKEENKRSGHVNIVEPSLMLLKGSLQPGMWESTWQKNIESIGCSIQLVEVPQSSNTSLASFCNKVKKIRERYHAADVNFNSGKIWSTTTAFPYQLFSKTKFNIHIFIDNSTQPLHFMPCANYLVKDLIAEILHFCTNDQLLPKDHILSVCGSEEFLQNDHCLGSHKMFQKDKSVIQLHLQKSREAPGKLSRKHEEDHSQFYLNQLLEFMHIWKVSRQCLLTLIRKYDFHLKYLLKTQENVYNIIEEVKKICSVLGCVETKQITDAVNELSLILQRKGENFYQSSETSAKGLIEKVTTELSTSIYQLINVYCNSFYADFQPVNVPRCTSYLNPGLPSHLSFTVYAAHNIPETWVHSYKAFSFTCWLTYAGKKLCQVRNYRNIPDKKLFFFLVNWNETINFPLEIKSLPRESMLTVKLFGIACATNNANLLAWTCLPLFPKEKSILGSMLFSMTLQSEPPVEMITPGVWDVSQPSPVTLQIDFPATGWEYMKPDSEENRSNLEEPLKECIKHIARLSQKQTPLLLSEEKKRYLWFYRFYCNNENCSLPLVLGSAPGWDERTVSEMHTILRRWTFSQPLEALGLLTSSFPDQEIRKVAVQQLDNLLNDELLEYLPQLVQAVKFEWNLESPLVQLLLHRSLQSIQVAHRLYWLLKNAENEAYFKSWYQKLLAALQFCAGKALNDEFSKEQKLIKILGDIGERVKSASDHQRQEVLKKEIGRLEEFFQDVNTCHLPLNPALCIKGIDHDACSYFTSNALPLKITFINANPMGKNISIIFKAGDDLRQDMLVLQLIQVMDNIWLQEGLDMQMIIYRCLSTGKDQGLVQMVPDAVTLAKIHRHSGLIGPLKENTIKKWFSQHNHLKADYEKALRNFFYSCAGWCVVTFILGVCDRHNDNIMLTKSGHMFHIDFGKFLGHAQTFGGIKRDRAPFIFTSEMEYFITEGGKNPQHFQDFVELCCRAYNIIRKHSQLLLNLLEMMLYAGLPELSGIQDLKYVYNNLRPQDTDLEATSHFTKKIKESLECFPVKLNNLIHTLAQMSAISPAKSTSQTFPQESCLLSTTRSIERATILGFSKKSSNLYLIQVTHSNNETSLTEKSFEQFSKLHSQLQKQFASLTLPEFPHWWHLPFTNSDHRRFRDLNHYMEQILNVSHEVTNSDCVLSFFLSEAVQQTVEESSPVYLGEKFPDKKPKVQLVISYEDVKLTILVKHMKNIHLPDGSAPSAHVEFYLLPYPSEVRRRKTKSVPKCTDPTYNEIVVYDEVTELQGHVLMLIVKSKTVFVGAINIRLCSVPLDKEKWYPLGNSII

[7] = target: cAMP-dependent protein kinase catalytic subunit beta (Homo sapiens) (UniProt P22694); experiment: Selectivity interaction (KinomeScan (DiscoverX)) EUB0001619a PRKACB; conditions: at 1 µM
[8] = target: Histone-lysine N-methyltransferase 2C (Homo sapiens) (UniProt Q8NEZ4); experiment: Selectivity interaction (Methyltransferase screen (Scintillation proximity assays)) EUB0000255b MLL3
Histone-lysine N-methyltransferase 2C (Homo sapiens), sequence (Q8NEZ4 whole entry): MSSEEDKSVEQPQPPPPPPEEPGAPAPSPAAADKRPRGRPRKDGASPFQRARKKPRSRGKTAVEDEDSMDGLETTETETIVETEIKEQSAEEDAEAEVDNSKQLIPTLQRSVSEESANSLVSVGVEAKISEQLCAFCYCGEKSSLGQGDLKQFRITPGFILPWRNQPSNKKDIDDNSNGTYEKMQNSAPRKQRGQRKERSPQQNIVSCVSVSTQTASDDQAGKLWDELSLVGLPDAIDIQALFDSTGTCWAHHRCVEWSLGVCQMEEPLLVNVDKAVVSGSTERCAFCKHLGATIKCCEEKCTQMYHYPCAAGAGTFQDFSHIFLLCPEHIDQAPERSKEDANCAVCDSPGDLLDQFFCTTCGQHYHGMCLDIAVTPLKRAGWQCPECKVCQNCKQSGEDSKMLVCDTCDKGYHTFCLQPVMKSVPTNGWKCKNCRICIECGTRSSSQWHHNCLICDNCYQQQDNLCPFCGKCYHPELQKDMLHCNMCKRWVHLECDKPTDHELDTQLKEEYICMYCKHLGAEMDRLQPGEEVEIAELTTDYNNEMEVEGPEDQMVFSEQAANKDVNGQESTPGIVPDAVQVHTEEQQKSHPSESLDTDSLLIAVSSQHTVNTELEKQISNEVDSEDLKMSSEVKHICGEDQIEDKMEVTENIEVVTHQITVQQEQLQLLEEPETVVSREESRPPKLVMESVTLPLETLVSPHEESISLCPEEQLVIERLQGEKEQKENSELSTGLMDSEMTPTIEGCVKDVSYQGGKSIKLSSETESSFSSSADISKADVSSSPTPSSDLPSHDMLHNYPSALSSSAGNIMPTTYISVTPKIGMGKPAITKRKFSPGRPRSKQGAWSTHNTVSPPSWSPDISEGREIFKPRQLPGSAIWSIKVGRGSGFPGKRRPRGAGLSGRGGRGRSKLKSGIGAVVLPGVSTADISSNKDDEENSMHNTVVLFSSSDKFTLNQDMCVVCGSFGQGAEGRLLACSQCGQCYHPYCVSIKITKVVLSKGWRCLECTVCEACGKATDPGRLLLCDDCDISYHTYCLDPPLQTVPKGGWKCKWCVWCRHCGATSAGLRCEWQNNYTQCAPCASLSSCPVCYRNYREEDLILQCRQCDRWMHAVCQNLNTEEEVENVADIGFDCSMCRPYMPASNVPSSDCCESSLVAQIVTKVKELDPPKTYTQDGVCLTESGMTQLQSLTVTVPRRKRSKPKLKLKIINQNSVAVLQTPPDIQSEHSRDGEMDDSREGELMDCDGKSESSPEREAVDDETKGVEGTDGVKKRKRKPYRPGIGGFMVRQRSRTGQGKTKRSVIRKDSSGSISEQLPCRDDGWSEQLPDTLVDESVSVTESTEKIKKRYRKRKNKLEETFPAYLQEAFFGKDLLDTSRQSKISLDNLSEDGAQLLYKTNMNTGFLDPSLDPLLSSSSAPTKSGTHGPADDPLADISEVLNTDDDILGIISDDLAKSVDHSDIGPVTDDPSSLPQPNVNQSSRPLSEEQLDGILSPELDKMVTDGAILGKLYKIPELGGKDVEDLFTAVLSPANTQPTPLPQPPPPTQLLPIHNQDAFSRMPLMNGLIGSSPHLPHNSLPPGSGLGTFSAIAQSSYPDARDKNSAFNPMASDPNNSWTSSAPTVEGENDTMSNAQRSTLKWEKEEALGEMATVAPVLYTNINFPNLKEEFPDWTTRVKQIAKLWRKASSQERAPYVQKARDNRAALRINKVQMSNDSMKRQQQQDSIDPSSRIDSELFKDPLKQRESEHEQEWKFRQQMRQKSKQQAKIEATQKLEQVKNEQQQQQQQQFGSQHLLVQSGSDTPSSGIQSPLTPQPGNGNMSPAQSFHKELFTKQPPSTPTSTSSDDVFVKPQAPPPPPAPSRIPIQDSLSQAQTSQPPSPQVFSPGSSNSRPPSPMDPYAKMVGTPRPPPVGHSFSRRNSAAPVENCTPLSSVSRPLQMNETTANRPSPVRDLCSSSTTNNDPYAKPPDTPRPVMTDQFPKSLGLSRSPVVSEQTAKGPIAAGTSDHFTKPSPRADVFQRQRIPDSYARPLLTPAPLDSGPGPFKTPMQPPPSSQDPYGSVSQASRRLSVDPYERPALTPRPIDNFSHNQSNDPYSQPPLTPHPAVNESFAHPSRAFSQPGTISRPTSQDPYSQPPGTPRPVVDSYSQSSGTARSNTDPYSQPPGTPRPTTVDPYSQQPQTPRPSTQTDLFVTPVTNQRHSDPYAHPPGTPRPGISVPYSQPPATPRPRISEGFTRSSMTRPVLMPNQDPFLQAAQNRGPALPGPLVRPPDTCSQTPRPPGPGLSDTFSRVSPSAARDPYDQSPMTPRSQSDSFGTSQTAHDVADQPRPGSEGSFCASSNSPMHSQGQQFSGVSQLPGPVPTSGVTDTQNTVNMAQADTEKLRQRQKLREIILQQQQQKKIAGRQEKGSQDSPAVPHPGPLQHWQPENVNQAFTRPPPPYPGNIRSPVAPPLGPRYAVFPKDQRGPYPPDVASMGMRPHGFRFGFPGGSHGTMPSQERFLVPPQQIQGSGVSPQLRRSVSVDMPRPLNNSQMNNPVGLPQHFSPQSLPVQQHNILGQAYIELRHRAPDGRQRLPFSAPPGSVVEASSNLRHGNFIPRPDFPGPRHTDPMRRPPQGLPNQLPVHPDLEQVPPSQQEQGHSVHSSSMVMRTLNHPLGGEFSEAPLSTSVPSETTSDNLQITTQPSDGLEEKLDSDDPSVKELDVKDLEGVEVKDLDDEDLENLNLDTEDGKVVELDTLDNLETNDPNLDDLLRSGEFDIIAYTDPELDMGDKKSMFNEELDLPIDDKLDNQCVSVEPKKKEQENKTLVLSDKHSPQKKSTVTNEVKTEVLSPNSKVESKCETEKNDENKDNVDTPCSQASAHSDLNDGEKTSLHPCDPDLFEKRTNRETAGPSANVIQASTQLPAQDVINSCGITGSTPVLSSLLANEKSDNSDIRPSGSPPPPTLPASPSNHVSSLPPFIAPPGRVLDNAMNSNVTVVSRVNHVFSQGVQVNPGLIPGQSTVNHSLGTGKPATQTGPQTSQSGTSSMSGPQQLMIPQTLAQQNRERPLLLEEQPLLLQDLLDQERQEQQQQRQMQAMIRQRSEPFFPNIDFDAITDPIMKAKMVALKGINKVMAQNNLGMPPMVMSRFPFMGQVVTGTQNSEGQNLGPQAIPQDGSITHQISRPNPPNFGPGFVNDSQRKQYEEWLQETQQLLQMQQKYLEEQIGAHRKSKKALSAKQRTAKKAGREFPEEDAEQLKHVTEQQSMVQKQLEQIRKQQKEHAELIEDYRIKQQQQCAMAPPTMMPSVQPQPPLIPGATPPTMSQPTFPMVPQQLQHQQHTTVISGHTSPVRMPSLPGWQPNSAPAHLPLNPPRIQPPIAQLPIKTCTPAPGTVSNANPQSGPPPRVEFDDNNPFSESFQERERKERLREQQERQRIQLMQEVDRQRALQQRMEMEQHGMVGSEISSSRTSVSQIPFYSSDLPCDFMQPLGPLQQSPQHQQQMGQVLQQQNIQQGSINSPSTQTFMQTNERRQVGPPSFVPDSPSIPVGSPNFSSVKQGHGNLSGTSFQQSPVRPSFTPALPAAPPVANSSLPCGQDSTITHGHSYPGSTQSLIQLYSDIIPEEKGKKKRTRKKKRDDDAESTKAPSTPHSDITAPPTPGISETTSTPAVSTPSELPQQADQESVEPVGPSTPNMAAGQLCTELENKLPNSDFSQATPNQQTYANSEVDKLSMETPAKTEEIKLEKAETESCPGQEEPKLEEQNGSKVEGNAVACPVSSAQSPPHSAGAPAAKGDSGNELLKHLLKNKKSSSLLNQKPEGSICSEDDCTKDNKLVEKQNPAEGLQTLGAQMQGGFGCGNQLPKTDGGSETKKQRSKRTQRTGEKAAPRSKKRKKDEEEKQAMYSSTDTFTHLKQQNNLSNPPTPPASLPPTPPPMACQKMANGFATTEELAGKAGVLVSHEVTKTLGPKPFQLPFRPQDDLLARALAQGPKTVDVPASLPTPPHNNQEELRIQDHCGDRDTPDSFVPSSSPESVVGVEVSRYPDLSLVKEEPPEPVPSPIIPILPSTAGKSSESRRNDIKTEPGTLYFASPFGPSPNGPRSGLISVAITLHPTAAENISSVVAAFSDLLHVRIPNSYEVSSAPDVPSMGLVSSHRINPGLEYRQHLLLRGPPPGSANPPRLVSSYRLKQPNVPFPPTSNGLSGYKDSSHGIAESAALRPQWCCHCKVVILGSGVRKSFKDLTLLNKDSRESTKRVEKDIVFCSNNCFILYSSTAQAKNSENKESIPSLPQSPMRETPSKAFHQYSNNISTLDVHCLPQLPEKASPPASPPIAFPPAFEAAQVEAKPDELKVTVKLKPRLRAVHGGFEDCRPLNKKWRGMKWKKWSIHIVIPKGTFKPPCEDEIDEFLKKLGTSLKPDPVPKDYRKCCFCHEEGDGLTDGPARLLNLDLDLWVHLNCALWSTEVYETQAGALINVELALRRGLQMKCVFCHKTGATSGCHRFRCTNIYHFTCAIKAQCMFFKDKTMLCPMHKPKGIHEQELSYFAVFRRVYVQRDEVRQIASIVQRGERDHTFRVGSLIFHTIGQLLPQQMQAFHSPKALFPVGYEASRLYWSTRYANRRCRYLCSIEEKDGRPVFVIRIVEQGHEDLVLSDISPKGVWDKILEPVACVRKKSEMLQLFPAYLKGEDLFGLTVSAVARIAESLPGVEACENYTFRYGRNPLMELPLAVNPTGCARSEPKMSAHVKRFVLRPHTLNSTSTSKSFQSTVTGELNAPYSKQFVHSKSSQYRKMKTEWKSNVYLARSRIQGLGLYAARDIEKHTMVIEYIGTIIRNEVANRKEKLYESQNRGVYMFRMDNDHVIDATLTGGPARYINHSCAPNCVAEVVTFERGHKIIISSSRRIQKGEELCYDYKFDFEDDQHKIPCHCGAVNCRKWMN

[9] = target: Calcium/calmodulin-dependent protein kinase kinase 2 (Homo sapiens) (UniProt Q96RR4); experiment: Selectivity interaction (Kinase panel (Invitrogen)) EUB0000639a CAMKK2; conditions: at 200 nM
[10] = target: T2, Tyrosine-protein kinase Tec (Homo sapiens) (UniProt P42680); experiment: Selectivity interaction (Ambit KINOMEscan and KiNATiv profiling in Jurkat cells) EUB0000090b TEC; type: cell-based; conditions: at 1 µM
T2 sequence (whole entry): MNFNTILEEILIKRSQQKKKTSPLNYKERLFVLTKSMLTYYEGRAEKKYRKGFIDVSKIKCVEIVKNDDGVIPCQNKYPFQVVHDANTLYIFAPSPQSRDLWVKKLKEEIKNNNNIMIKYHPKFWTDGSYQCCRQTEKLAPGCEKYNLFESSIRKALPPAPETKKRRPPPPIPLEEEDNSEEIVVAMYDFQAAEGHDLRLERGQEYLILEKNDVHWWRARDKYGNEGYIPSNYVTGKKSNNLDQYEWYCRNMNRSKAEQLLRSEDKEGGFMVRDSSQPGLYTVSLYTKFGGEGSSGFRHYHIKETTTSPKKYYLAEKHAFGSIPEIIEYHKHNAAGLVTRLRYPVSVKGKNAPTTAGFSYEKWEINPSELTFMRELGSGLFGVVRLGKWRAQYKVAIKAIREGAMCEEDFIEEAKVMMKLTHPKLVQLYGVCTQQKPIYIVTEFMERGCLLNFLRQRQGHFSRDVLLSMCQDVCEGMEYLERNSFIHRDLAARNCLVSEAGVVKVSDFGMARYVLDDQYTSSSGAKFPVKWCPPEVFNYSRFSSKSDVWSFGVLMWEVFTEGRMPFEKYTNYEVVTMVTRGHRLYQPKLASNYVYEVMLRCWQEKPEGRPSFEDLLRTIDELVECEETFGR

Structure (SMILES): C=CC(=O)Nc1ccc(C(=O)Nc2[nH]nc3c2CN(C(=O)N[C@H](CN(C)C)c2ccccc2)C3(C)C)cc1
- % of engagement [1]: -9.9%

Structure (SMILES): COc1cc(N(C)c2ccnc3ccc(C(F)(F)F)cc23)cc(OC)c1OC
- % binding [2]: 77%
- % binding [3]: 89%
- % binding [4]: 98%

Structure (SMILES): Cn1cc(-n2cnc3c(NCc4nc5cc(Cl)c(Cl)cc5[nH]4)nc(N4CCOCC4)nc32)cn1
- % of inhibition [5]: -166%

Structure (SMILES): COc1cc(Nc2nc(C)cc(-c3cnn4nc(OC)ccc34)n2)cc(C(F)(F)F)c1
- % of control [6]: 89%

Structure (SMILES): N#Cc1cccc(-c2c[nH]c3ncnc(N4CCOCC4)c23)c1
- % of control [7]: 84%

Structure (SMILES): COCCN1CCC(c2cc(CN(C)C(=O)c3cccc(Oc4ccccc4)c3)ccn2)CC1
- % activity ([8]; at 1 µM): > 95%
- % activity ([8]; at 10 µM): > 90%

Structure (SMILES): CC[C@@H]1[C@H](F)C(=O)N[C@@H]1COc1nccc2cc(C(N)=O)c(OC)cc12 [ZIMLOVISERTIB]
- % of inhibition [9]: -1.97%

Structure (SMILES): CN(C)C/C=C/C(=O)Nc1ccc(C(=O)N2CCCC(Nc3ncc(Cl)c(-c4c[nH]c5ccccc45)n3)C2)cc1 (stereo unspecified)
- % of control [10]: 99%
